Patent US20230159931A1, “TARGETING THE PALMOTYLATION/DEPALMOTYLATION CYCLE TO TREAT INFLAMMATORY DISEASES” (CORNELL UNIVERSITY, priority 2020, published 2023)

Columns and labels:
[1] = system: Bone marrow-derived macrophages (BMDM); assay: Cytokine mRNA expression during LPS priming of BMDM (qRT-PCR); format: cell-based; conditions: 100 ng/mL LPS, 2-BP 10 μM or 25 μM, 6 hours
Procedure: (§1) FIGS. 12A-12D. 2-BP, a pan-DHHC inhibitor, decreases cytokines mRNA expression during the LPS priming step of inflammasome activation. Bone marrow-derived macrophages (BMDM) were treated with 100 ng/mL lipopolysaccharide (LPS), which can prime BMDM for inflammasome activation. A small molecule that inhibits all the DHHC family of palmitoyltransferases (DHHCs), 2-bromopalmitate (2-BP), was added at 10 μM or 25 μM together with LPS. The cells were cultured with LPS and 2-BP for 6 hours and then the mRNA levels of several pro-inflammatory cytokines: (A) IL-1 beta, (B) IL-6, (C) IL-12 beta, and (D) IL-18, were measured by quantitative reverse transcription PCR (qRT-PCR).
as §1, with “Bone” for “FIGS. 12A-12D. 2-BP, a pan-DHHC inhibitor, decreases cytokines mRNA expression during the LPS priming step of inflammasome activation. Bone”, “cytokines:” for “cytokines: (A)”, “beta (FIG. 12A), IL-6 (FIG. 12B),” for “beta, (B) IL-6, (C)”, “beta (FIG. 12C),” for “beta,”, “IL-18 (FIG. 12D),” for “(D) IL-18,”

NLRP3 inflammasome = assay: NLRP3-mediated inflammasome activation in peritoneal macrophage (secreted IL-1 beta); format: cell-based; conditions: peritoneal macrophage primed with LPS 200 ng/mL 4h; 2-BP 25 μM with ATP 5 mM or Nigericin 10 μM, 1 h
Procedure: (§2) FIG. 13. 2-BP affects NLRP3-mediated inflammasome activation. Peritoneal macrophage was first primed with LPS (200 ng/mL) in DMEM medium (without serum) for 4h, and then 2-BP (25 μM) and ATP (5 mM) or Nigericin (10 μM) were added to the cell culture and incubated for 1 h. ATP and nigericin are two reagents that are commonly used to activate the NLRP3 inflammasome. The activation of NLRP3 inflammasome was then monitored by measuring the level of IL-1 beta secreted to the medium.
as §2, with “Peritoneal” for “FIG. 13. 2-BP affects NLRP3-mediated inflammasome activation. Peritoneal”, “medium (FIG. 13). The data support that inhibiting DHHCs with 2-BP can decrease NLRP3 inflammasome activation.” for “medium.”

SMAD2 S-palmitoylation = SMAD2 S-palmitoylation in HEK293T cells treated with APT inhibitors (Alk14, in-gel fluorescence); format: cell-based, human; conditions: 10 μM APT inhibitors for 24 hours; HEK293T cells with HA-DHHC7 and Flag-SMAD2
Text: FIGS. 7A-7G. APT2 is the depalmitylase of SMAD2 and C-terminal phosphorylation of SMAD2 is S-palmitoylation independent. (A) C-terminal phosphorylation (Ser465/Ser467) levels of Flag-SMAD2 (p-SMAD2(C2)) in HEK293T cells expressing HA-tagged mouse DHHC1-23. SMAD2 was pulled down with Flag beads and subjected to western blot analyses. (B) HEK293T cells were transfected with HA-tagged DHHC7 and Flag-SMAD2 WT and C41/81S mutant plasmid and treated with Alk14. The S-palmitoylation level of immunoprecipitated SMAD2 was visualized by in-gel fluorescence and the p-SMAD2(C2) level was detected by western blot analyses. […] The S-palmitoylation level of immunoprecipitated SMAD2 was visualized by in-gel fluorescence. […] The cells were labeled with Alk14 and the S-palmitoylation of SMAD2 was determined by in-gel fluorescence. […] The cells were labeled with Alk14 and the S-palmitoylation of SMAD2 was determined by in-gel fluorescence and the p-SMAD2(C2) level was detected by western blot analyses. […]
Cells were treated with 50 μM palmitic acid analogue Alkyne 14 (Alk14) for 5 h and the collected and lysed in 1% NP-40 lysis buffer (25 mM Tris-HCl pH 8.0, 150 mM NaCl, 10% glycerol, 1% Nonidet P-40) with protease inhibitor cocktail. […] The protein concentration was determined by Bradford assay (23200, Thermo Fisher). […]

| Compound | IL-1 beta mRNA level [1] | IL-6 mRNA level [1] | IL-12 beta mRNA level [1] | IL-18 mRNA level [1] | NLRP3 inflammasome activation (level of IL-1 beta secreted to the medium) (NLRP3 inflammasome) | SMAD2 S-palmitoylation signal (SMAD2 S-palmitoylation) |
| --- | --- | --- | --- | --- | --- | --- |
| CCCCCCCCCCCCCCC(Br)C(=O)O (stereo not drawn) [2-BP, 2-bromopalmitic acid] | decrease the mRNA levels of all these cytokines in a concentration dependent manner | decrease the mRNA levels of all these cytokines in a concentration dependent manner | decrease the mRNA levels of all these cytokines in a concentration dependent manner | decrease the mRNA levels of all these cytokines in a concentration dependent manner | decrease | – |
| CCCCCCCCCC[C@@H]1C(=O)O[C@H]1CCc1ccc(OC)c(OC)c1 [palmostatin B] | – | – | – | – | – | significantly enhanced |
